One compound from publication PMC4148704, “Agaricus meleagris pyranose dehydrogenase: Influence of covalent FAD linkage on catalysis and stability” (Archives of Biochemistry and Biophysics, 2014) can be followed below.

For the test, the target named is T1, AmPDH (Agaricus meleagris pyranose dehydrogenase) (Macropsalliota meleagris, UniProt Q3L245).
T1 construct: gene pdh1; recombinant from Pichia pastoris X-33, secreted glycoprotein, about 75 kDa, monomer, 577 amino acids, covalent 8alpha-N(3)-histidyl FAD at H103
Description: stopped-flow reductive half-reaction, […] nm. The format is biochemical. Conditions: pH 7.5, 65 mM sodium phosphate, 30 °C; 0.1-5 mM D-glucose; only a bimolecular rate constant.

T1 sequence (Q3L245 26-602): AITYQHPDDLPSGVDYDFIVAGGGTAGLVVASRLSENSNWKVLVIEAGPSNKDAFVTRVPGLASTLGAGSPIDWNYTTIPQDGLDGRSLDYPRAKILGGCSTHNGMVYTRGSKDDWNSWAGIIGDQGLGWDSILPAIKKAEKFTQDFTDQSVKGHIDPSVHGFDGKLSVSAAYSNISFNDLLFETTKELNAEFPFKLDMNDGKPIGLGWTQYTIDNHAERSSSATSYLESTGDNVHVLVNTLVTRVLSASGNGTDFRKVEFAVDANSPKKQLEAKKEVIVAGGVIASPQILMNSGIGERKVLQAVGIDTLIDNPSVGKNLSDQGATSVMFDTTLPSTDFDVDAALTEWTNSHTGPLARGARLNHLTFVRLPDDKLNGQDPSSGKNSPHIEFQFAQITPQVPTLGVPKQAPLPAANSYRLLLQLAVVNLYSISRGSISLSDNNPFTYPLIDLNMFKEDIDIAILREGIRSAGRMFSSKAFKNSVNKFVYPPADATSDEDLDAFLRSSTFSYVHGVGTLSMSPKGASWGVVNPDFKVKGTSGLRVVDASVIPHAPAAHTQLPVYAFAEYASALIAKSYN

With `OC[C@H]1OC(O)[C@H](O)[C@@H](O)[C@@H]1O` (stereo partly drawn) [D-glucose], the kapp entry is “spectral changes of wild-type AmPDH upon addition of D-glucose”.
